In BindingDB's records for doi:10.1021/acs.jmedchem.6b01169 (Gilead Sciences, 2016):

These compounds were tested against Phosphatidylinositol 3-kinase regulatory subunit alpha/4,5-bisphosphate 3-kinase catalytic subunit delta isoform (Homo sapiens, UniProt P27986+O00329) (assay: Inhibition of human full length PI3K p110delta/p85alpha using phosphatidylinositol […] as substrate measured after 30 mins by TR-FRET assay).
Sequence of Phosphatidylinositol 3-kinase regulatory subunit alpha/4,5-bisphosphate 3-kinase catalytic subunit delta isoform (P27986 whole entry, canonical isoform): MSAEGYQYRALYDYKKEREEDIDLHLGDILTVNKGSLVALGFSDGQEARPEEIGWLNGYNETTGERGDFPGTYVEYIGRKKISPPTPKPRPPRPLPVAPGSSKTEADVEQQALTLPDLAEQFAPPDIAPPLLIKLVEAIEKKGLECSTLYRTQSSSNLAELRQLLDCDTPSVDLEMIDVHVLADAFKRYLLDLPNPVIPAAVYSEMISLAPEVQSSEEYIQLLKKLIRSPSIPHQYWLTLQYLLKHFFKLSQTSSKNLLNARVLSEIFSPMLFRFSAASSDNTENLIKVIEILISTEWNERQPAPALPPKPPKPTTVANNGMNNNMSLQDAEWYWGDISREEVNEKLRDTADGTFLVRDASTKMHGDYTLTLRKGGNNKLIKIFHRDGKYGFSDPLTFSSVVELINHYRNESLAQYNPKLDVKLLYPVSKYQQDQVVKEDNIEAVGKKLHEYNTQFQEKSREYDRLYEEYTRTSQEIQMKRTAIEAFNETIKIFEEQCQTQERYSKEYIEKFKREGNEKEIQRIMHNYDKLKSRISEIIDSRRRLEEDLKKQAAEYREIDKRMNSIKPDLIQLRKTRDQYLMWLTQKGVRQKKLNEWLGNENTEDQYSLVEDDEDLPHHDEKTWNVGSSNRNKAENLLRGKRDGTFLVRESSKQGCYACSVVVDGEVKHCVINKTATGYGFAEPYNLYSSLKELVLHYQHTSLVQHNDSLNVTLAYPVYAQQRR
Sequence of Phosphatidylinositol 3-kinase regulatory subunit alpha/4,5-bisphosphate 3-kinase catalytic subunit delta isoform (O00329 whole entry, canonical isoform): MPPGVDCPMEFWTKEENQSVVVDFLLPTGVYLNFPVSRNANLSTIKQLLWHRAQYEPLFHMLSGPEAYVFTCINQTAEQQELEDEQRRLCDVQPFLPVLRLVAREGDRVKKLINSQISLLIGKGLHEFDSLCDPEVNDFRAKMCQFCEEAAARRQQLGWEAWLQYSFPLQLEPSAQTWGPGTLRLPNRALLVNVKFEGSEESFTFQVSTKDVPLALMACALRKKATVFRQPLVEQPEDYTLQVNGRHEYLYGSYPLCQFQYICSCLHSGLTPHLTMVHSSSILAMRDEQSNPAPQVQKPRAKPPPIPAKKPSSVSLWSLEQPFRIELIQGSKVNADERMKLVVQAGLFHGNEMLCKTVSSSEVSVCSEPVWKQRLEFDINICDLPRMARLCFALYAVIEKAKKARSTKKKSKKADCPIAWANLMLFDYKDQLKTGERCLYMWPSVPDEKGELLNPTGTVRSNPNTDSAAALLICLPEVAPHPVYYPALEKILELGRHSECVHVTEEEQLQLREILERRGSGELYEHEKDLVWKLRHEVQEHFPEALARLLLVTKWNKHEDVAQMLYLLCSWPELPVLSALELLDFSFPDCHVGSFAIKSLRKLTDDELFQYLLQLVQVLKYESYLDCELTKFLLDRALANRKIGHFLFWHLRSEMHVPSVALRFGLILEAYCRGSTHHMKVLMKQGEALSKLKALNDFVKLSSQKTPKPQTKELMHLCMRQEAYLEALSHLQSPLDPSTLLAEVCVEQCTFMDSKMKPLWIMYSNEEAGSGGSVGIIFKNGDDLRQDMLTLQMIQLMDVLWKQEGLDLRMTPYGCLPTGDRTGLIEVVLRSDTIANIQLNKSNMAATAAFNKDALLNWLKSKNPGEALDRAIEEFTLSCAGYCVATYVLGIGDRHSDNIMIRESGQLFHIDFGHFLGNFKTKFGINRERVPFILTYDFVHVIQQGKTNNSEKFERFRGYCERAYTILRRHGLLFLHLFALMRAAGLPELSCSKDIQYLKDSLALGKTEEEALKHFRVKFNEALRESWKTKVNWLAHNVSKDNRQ
In the case of C[C@H](Nc1nc(N)nc(N)c1C#N)c1nc2cccc(Cl)c2c(=O)n1-c1cccnc1 [US9221795, 1], the IC50 is reported as 0.6 nM.
C[C@H](Nc1nc(N)nc(N)c1C#N)c1nc2cccc(Cl)c2c(=O)n1-c1cncc(Cl)c1 [US9221795, 13] gave an IC50 of 8 nM.
COc1cncc(-n2c([C@H](C)Nc3nc(N)nc(N)c3C#N)nc3cccc(Cl)c3c2=O)c1 [US9221795, 14] gave an IC50 of 4 nM.
With C[C@H](Nc1nc(N)nc(N)c1C#N)c1nc2cccc(Cl)c2c(=O)n1-c1cncc(C2CC2)c1 [US9221795, 19] the IC50 was 5 nM.
C[C@H](Nc1nc(N)nc(N)c1C#N)c1nc2c(Cl)cccc2c(=O)n1-c1cccnc1 [US9221795, 22] was tested, and the IC50 was 6 nM.
C[C@H](Nc1nc(N)nc(N)c1C#N)c1nc2c(F)ccc(Cl)c2c(=O)n1-c1cccnc1 [US9221795, 24] showed an IC50 of 0.4 nM.
For C[C@H](Nc1nc(N)nc(N)c1C#N)c1nc2c(F)ccc(F)c2c(=O)n1-c1cccnc1 [US9221795, 25], the IC50 was 8 nM.
Compound Cc1ccncc1-n1c([C@H](C)Nc2nc(N)nc(N)c2C#N)nc2cccc(Cl)c2c1=O [US9221795, 40] has an IC50 of 0.4 nM.
